Here are results for 13 compounds from US5922554A, “Inhibition of cellular uptake of cholesterol” (The Regents of the University of California, priority 1996, dated 1999).

A value given as a limit tells only on which side of the number the result lay.

Assay [1] has as its system fibroblast monolayers. Description: Influx/uptake of ^3 H-FC (free cholesterol) from labeled LDL (or plasma, HDL) into normal fibroblast monolayers. The format is cell-based, human. The arrangement: Emax: dose or concentration left out as unconfirmed. The settings on record: for effect on uptake of ^3 H-FC from LDL: up to 60 μM; for FC Influx: LDL-FC 60.2 μg ml^-1, 60 min, 37° C., 30 min preequilibration with inhibitor at: Na-azide 1 mM, NH4-vanadate 1 mM, NEM 2 mM, KNO3 50 mM, progesterone 30 μM, forskolin 30 μM, IBMX 100 μM, chloroquine 20 μM; for FC Influx, % (PBS only = 100.0): same concentrations and conditions as Table 3 FC influx, 60 min; for inhibition at higher concentration (words): up to 100 μM; for effect on LDL FC uptake: Table 3 conditions.

Assay [2] deals with fibroblast monolayers. In words: Transfer of intracellular ^3 H-FC to the cell surface (cholesterol oxidase accessibility). The conditions noted are these: for % transfer of intracellular ^3 H-FC to the cell surface, relative to rate in absence of inhibitor: NEM 2 mM, KNO3 50 mM, nocodazole, brefeldin A, vinblastine 40 μM, pulse labeled 2 min 31° C., then 30 min 31° C. The format is cell-based, human. The procedure: This assay utilized the finding (see Example 1) that only FC in the caveolar fraction of the plasma membrane fraction was modified by cholesterol oxidase in unfixed fibroblast monolayers.
The rate at which intracellular LDL-derived ^3 H-FC became accessible at the cell surface was measured as follows. Cell monolayers were labeled with ^3 H-FC LDL under the conditions shown for each experiment. Unbound and adsorbed LDL were removed as described above. In some experiments metabolic inhibitors of different transport steps were then added for 30 min at 15° C. […] Cholesterol oxidase (Boehringer-Manheim, Indianapolis, Ind., USA) was added in PBS to a final concentration of 1 U ml^-1. Incubation was for 4 h at 0° C. The cells were washed with ice-cold PBS, and extracted with 0. 1N NAOH. Cell total lipid was extracted with chloroform-methanol (1:1 v/v). […] .
Fibroblast monolayers were prelabeled with FC-labeled LDL for 2 min at 31° C. Medium and surface-bound labeled LDL were removed as described above. The cells were incubated with inhibitors of intracellular transport for 30 min at 15° C. Movement of FC label to the cell surface remained negligible (FIG. 11).
^a Relative to rate in the absence of inhibitor. Values are expressed

Assay [3] relates to fibroblast monolayers. In words: D2O-Ficoll density gradient fractionation of ^3 H-FC labeled fibroblasts. Type of assay: cell-based, human. The conditions noted are these: clathrin fraction d 1.12 g ml^-1; NEM 2 mM. The procedure:
Early endosomal vesicles were labeled with LDL-derived ^3 H-FC by a modification of procedures described by Woodman & Warren (1991) J. Cell Biol., 112:1133-1141. Fibroblast monolayers in 10 cm dishes were washed in ice-cold PBS. The cells were labeled by incubation (2 h, 4° C.) with ^3 H-FC LDL. The monolayers were washed in PBS and brought to 31° C. for 0-15 min. The cells were then quickly chilled on ice, and cold unlabeled LDL was added (15 min, 4° C.) to displace any remaining surface-bound labeled LDL and all subsequent steps were carried out at 0-4° C.
Cells from three 10 cm dishes were used for each gradient. Monolayers were washed with 140 mM sucrose, 0.5 mM MgCl2, 1 mM EGTA, 20 mM 2-[N-morpholino]ethanesulfonic acid (MES), 70 mM potassium acetate, pH 6.6 (`vesicle buffer`) (Woodman & Warren, supra.). The cells were scraped from the dishes. Dithiothreitol (1 mm) and protease inhibitors (PMSF, 200 μg ml^-1; benzamidine 0.5 mM; soybean trypsin inhibitor 10 μg ml^-1; leupeptin 1 μg ml^-1) were added. The cells were broken with a Dounce homogenizer (15 strokes) and the homogenate centrifuged at 500× g for 5 min. Ribonuclease A (50 μg ml^-1) was added. After 30 min a second centrifugation was carried out (7000× g, 30 min). Supernatant (~2 ml) was layered on a 10 ml continuous gradient of 2% Ficoll-9% D2 O to 20% Ficoll-90% D2 O in vesicle buffer containing 1 mM dithiothreitol. Centrifugation in a Beckman SW41 rotor was carried out at 80,000× g for 16 h. Fractions (~0.6 ml) were collected dropwise and the distribution of FC label determined. Because of slight variation in fraction size between gradients, data were normalized to 20 fractions for comparison between experiments. Solution density was determined gravimetrically using 100 μl portions of each fraction. The density of a given fraction was reproducible ±0.5% between experiments.
Fibroblast monolayers were incubated with ^3 H-FC LDL for 30 min at 31° C. to predominantly label the intermediate density vesicle fraction. Cell surface LDL was removed as described above. […]

The subject of assay [4] is fibroblast monolayers. In words: Cholesterol efflux from ^3 H-cholesterol labeled fibroblasts to plasma. Type of assay: cell-based, human. On the procedure: Fibroblast monolayers were equilibrated with ^3 H-FC-labeled native plasma or with isolated ^3 H-labeled LDL, as specified for each experiment. Following incubation, the dishes were washed with albumin-complete PBS and then (×4) with complete PBS. They were then incubated for 3 min with unlabeled plasma or lipoprotein fractions and the rate of appearance of radioactivity in the medium determined. Samples of medium (100 μl) were immediately chilled in ice water and centrifuged (10 min, 2000× g) at 0-2° C. ^3 H-cholesterol radioactivity in the supernatant was either assayed directly, or fractionated by agarose gel electrophoresis. FC efflux was linear as previously reported (Kawano et al., Biochemistry, 32: 5025-5028 (1993)).
For electrophoresis, 20 μl portions of labeled medium were added to strips of 0.75% w/v agarose in 0.025M barbital buffer (pH 8.6) and separated as previously described (Fielding et al., Biochemistry, 30: 8551-8557 (1991)). 2.5 mm gel fractions were then collected, and radioactivity measured. The location of major lipoprotein classes was determined from strips run simultaneously with whole native plasma equilibrated (60 min, 37° C.) with ^3 H-FC.
^c Percent loss of label from cells prelabeled (10 min, 37° C.

Assay [5] deals with LDL-receptor deficient cells (GM 2000 line). In words: Influx of ^3 H-FC from LDL into LDL-receptor-deficient fibroblasts (GM 2000).
The mark [6] stands for this setting: Homo sapiens, Fibroblast, read-out: Influx of 3H-FC, % Remaining.

Consider `CO/C1=C\C(C)=C\[C@@H](C)[C@@H](O)[C@@H](C)C/C(C)=C/C=C/[C@H](OC)[C@@H]([C@@H](C)[C@@H](O)[C@H](C)[C@@]2(O)C[C@@H](O)[C@H](C)[C@@H](C(C)C)O2)OC1=O` [Bafilomycin A1], for which, in the assay on fibroblast monolayers [1], the “inhibition of LDL-FC pathway (summary, words)” value (shortened to “inhibition of LDL-FC pathway”) is listed as “inhibited”. Besides, the activity at 45 µM in the assay on fibroblast monolayers [1] (setting [6]) came out at 70 ± 4%. Moreover, the Emax in the assay with fibroblast monolayers [1] (Homo sapiens, Fibroblast, read-out: maximal effect on uptake of FC from LDL) is 30%.

With `C[C@H]1CCC/C=C/[C@@H]2C[C@H](O)C[C@H]2[C@H](O)/C=C/C(=O)O1` [Brefeldin A], in the assay on fibroblast monolayers [2], the “transport of intracellular ^3 H-FC to the cell surface/caveolae” value (from here on “transport … to the cell surface/caveolae”) is recorded as “unaffected” and the “% transfer of intracellular ^3 H-FC to the cell surface, relative to rate in absence of inhibitor” value is reported as 95 ± 5%. In the assay on fibroblast monolayers [1], the “inhibition of LDL-FC pathway” value is given as “not inhibited” and the “effect on uptake of ^3 H-FC from LDL” value is reported as “without effect”.

As to `CCN(CC)CCCC(C)Nc1ccnc2cc(Cl)ccc12` (stereo not shown) [Chloroquine], in the assay on fibroblast monolayers [1], the “LDL-FC influx (discussion, words)” value is on record as “no effect”; the “FC Influx” value was found to be 1.34 ± 0.04 µg; the “FC Influx, % (PBS only = 100.0)” value came to 102.3%.

For `C=C1C(C)C2C(Cc3ccccc3)NC(=O)C23C(OC(C)=O)/C=C/C(C)(O)C(=O)C(C)CC=CC3C1O` (stereo not shown) [Cytochalasin D], the “transport … to the cell surface/caveolae” value with fibroblast monolayers [2] was “no effect”. In the assay on fibroblast monolayers [1], the “inhibition of LDL-FC pathway” value is given as “inhibited”. In the assay with fibroblast monolayers [1] (setting [6]), the activity at 40 µM came to 38 ± 2%. Moreover, in the assay with fibroblast monolayers [1] (Homo sapiens, Fibroblast, read-out: reduction of uptake of ^3 H-FC from LDL (average)), the inhibition at 40 µM stood at 65%. In addition, the results for the “inhibition at higher concentration (words)” value in the assay with fibroblast monolayers [1] (listed as Cytochalasin) and with fibroblast monolayers [1] (listed as cytochalasin D) were “No greater inhibition” and “no increase in inhibition”, respectively. In addition, the “FC label in density gradient” value with fibroblast monolayers [3] is “A similar result”.

As to `O=[N+]([O-])[O-].[K+]` [KNO3], the “initial rate of efflux of FC from prelabeled cells to plasma” value with fibroblast monolayers [4] was “increased several-fold”. Also, in the assay with fibroblast monolayers [2], the “transport … to the cell surface/caveolae” value is given as “inhibited the return of FC to the cell surface, but less effectively than did nocodazole” and the “% transfer of intracellular ^3 H-FC to the cell surface, relative to rate in absence of inhibitor” value turned out to be 70 ± 4%. In the assay on fibroblast monolayers [1], the “inhibition of LDL-FC pathway” value is given as “inhibited”; the “FC Influx” value was found to be 0.28 ± 0.02 µg; the “FC Influx, % (PBS only = 100.0)” value is recorded as 21.0%. Besides, in the assay with fibroblast monolayers [1] (50 mM KNO3, data not shown), the “time course of inhibition of ^3 H-FC transfer compared with NEM (FIG. 8)” value is “comparable time course”. In the assay with fibroblast monolayers [1] (NEM or KNO3, Example 1, FIG. 8), the “inhibition of uptake of free cholesterol from LDLs (summary)” value is recorded as above 80%.

Regarding `CC[C@@]1([C@@H]2O[C@@H]([C@H]3O[C@@](O)(CO)[C@H](C)C[C@@H]3C)C[C@@H]2C)CC[C@H]([C@]2(C)CC[C@]3(C[C@H](O)[C@@H](C)[C@@H]([C@@H](C)[C@@H](OC)[C@H](C)C(=O)O)O3)O2)O1` [Monensin], in assay [5] (GM2000), the “selective uptake of FC from LDL, LDL-receptor deficient cells” value was “Comparable results”. In addition, in the assay on fibroblast monolayers [1], the “inhibition of LDL-FC pathway” value is “inhibited”; the “effect on LDL FC uptake” value is listed as “effective in reducing the selective uptake of FC from LDL”; the “inhibition at higher concentration (words)” value was “no increase in inhibition”. In the assay with fibroblast monolayers [3], the “FC label in density gradient” value is listed as “A similar result”.

As to `[NH4+].[O]=[V](=[O])[O-]` [NH4 -vanadate], in the assay with fibroblast monolayers [1], the “inhibition of LDL-FC pathway” value is listed as “not inhibited”; the “FC Influx” value was 1.36 ± 0.08 µg; the “effect on LDL FC uptake” value is “without effect”; the “FC Influx, % (PBS only = 100.0)” value worked out at 103.2%.

With `[N-]=[N+]=[N-].[Na+]` [Na-azide], in the assay with fibroblast monolayers [1], the “inhibition of LDL-FC pathway” value is given as “not inhibited”; the “FC Influx” value worked out at 1.18 ± 0.02 µg; the “effect on LDL FC uptake” value is given as “without effect”; the “FC Influx, % (PBS only = 100.0)” value is 89.5%.

Take `COC(=O)Nc1nc2ccc(C(=O)c3cccs3)cc2[nH]1` [Nocodazole]: in the assay with fibroblast monolayers [2], the “transport … to the cell surface/caveolae” value is “reduced”; the “transport of the vesicles to the plasma membrane (summary, words)” value was “inhibited”; the “% transfer of intracellular ^3 H-FC to the cell surface, relative to rate in absence of inhibitor” value is reported as 40 ± 1%. In addition, in the assay on fibroblast monolayers [1], the “inhibition of LDL-FC pathway” value is “not inhibited” and the “effect on uptake of ^3 H-FC from LDL” value is “without effect”. Further, the activity at 60 µM in the assay on fibroblast monolayers [1] (Homo sapiens, Fibroblast, cytochalasin D 40 μM, monensin 40 μM, nocodazole 60 μM, bafilomycin A1 45 μM, means ±1 SD of three experiments, read-out: Influx of 3H-FC, % Remaining) was 101 ± 6%.

In the case of `CC[C@]1(O)C[C@@H]2CN(CCc3c([nH]c4ccccc34)[C@@](C(=O)OC)(c3cc4c(cc3OC)N(C)[C@H]3[C@@](O)(C(=O)OC)[C@H](OC(C)=O)[C@]5(CC)C=CCN6CC[C@]43[C@@H]65)C2)C1` [Vinblastine], the “transport … to the cell surface/caveolae” value with fibroblast monolayers [2] is reported as “unaffected”. In the assay on fibroblast monolayers [2] (Homo sapiens, Fibroblast, read-out: % transfer of intracellular ^3 H-FC to the cell surface, relative to rate in absence of inhibitor), the inhibition at 40 µM was determined as 100 ± 2%. In addition, in the assay with fibroblast monolayers [1], the “inhibition of LDL-FC pathway” value is on record as “not inhibited” and the “effect on uptake of ^3 H-FC from LDL” value is “without effect”.

For the compound `[3H]C1C([3H])[C@@]2(C)C(=CC[C@H]3[C@@H]4CC[C@H]([C@H](C)CCCC(C)C)[C@@]4(C)CC[C@@H]32)C[C@H]1O` (stereo partly shown) [^3 H-FC, 1,2-^3 H-cholesterol], the “cholest-4-en-3-one fraction of total label” value in the assay on fibroblast monolayers [2] (0-4° C., 4 experiments) was found to be 0.8±0.2%. Moreover, the “t1/2 of increase in oxidized FC (transfer to cell surface)” value in the assay with fibroblast monolayers [2] (31° C., FIG. 11) was ~ 2 min. The “internalized FC localized to oxidase-sensitive fraction” value in the assay with fibroblast monolayers [2] (after 2 min pulse label, 31° C.) is “about 40%”.

With `CC(=O)O[C@H]1C(=O)[C@@]2(C)[C@H]([C@H](OC(=O)c3ccccc3)[C@]3(O)C[C@H](OC(=O)[C@H](O)[C@@H](NC(=O)c4ccccc4)c4ccccc4)C(C)=C1C3(C)C)[C@]1(OC(C)=O)CO[C@@H]1C[C@@H]2O` [taxol], in the assay with fibroblast monolayers [1], the “inhibition of LDL-FC pathway” value is reported as “not inhibited” and the “effect on uptake of ^3 H-FC from LDL” value is “without effect”.

Consider sodium heparin, for which the “inhibition of influx of FC from LDL” value is “Approximately 80%” in assay [5] (heparin 0.1 mg/ml, GM 2000 cells) and “Approximately 80%” in the assay on fibroblast monolayers [1] (heparin 0.1 mg/ml, normal cells, LDL 150 μg FC ml^-1, 10 min 37° C.).
